# Test results from patent US8987195B2 (priority 2012, dated 2015).
# Where two headings read alike, the source gives them in different places.
# What was measured:
# [1] = tested on: HCV genotype 1b replicon; test: HCV replicon assay, genotype 1b replicon EC50; format: cell-based, Hepatitis C virus; conditions: Hepatitis C virus, read-out: EC50 [gt-1b]
# Method in brief: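 Potency comes from a four-parameter fit of signal as percent of DMSO control. Replicon-bearing cells were treated 24-48 hours with a compound dilution series in absence of G418, and replicon RNA was quantified normalized to cyclophilin A RNA, or luciferase read.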
# [2] = target: HCV NS3/4A protease genotype 1b (Hepatitis C virus genotype 1b, UniProt P26663); test: HCV NS3/4A protease time-resolved fluorescence (TRF) assay, Ki against genotype 1b; format: biochemical
# Chain of HCV NS3/4A protease genotype 1b (P26663 1027-1657): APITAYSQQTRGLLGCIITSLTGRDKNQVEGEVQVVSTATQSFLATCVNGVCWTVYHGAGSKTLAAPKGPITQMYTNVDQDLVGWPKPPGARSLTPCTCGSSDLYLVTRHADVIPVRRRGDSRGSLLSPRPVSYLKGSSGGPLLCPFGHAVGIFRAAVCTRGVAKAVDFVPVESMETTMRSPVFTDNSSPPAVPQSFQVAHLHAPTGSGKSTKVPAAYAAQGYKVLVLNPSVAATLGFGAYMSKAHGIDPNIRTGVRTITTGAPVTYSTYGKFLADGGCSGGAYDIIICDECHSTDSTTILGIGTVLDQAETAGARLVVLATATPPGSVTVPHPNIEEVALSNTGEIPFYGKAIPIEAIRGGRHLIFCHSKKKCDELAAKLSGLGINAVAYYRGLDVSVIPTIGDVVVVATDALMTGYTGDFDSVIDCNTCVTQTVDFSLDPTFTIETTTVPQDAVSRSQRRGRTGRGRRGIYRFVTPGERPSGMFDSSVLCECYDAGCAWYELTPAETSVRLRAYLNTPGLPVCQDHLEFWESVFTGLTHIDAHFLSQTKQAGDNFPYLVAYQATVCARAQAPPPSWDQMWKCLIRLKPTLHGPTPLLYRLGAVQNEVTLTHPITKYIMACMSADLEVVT
# Chain of HCV NS3/4A protease genotype 1b (P26663 1658-1711): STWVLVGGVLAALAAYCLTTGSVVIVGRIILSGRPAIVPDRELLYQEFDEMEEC
# Method in brief: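 Ki values come from IC50 fits corrected for substrate concentration and KM. The time-resolved fluorescence protease reaction used 25 nM peptide substrate, 2.5 h, room temperature, pH 7.5 HEPES buffer, after 30 min enzyme–inhibitor preincubation.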
# [3] = IC50 [gt-1b] (nM), NS3/4A genotype 1b, enzyme 0.2 nM
# [4] = HCV replicon, genotype 1b, K+ salt
# [5] = IC50 [gt-1b], NS3/4A protease TRF assay, genotype 1b enzyme 0.2 nM, K+ salt
# [6] = IC50 [gt-1b], NS3/4A protease TRF assay, genotype 1b enzyme 0.2 nM
compound,measurement,setting,value
"Cc1nc2cc(Cl)ccc2c2c1O[C@]1(CC2)C[C@H]2C(=O)N[C@]3(C(=O)NS(=O)(=O)C4(C)CC4)C[C@H]3/C=C\CCCCC[C@H](NC(=O)OC(C)C)C(=O)N2C1 [Example 237, propan-2-yl [(2R,6S,12Z,13aS,14aR,16aS)-8′-chloro-5′-methyl-14a-{[(1-methylcyclopropyl)sulfonyl]carbamoyl}-5,16-dioxo-1,1′,2′,5,6,7,8,9,10,11,13a,14,14a,15,16,16a-hexadecahydrospiro[cyclopropa[e]pyrrolo[1,2-a][1,4]diazacyclopentadecine-2,3′-pyrano[2,3-c]quinolin]-6-yl]carbamate]",EC50,[1]; genotype 1b replicon,5720 pM
same,IC50,[2]; [3],0.04 nM
"COc1ccc2nc(C(F)F)c3c(c2c1)CC[C@]1(C[C@H]2C(=O)N[C@]4(C(=O)NS(=O)(=O)C5(C)CC5)C[C@H]4/C=C\CCCCC[C@H](NC(=O)OC4(C)CCC4)C(=O)N2C1)O3 [Example 493, 1-methylcyclobutyl [(2R,6S,12Z,13aS,14aR,16aS)-5′-(difluoromethyl)-9′-methoxy-14a-{[(1-methylcyclopropyl)sulfonyl]carbamoyl}-5,16-dioxo-1,1′,2′,5,6,7,8,9,10,11,13a,14,14a,15,16,16a-hexadecahydrospiro[cyclopropa[e]pyrrolo[1,2-a][1,4]diazacyclopentadecine-2,3′-pyrano[2,3-c]quinolin]-6-yl]carbamate]",EC50,[1]; [4],283 pM
same,IC50,[2]; [5],0.003 nM
"COc1ccc2nc(C3CC3)c3c(c2c1)[C@H](F)C[C@]1(C[C@H]2C(=O)N[C@]4(C(=O)NS(=O)(=O)C5(C)CC5)C[C@H]4/C=C\CCCCC[C@H](NC(=O)OCC(C)(C)C)C(=O)N2C1)O3 [Example 455, 2,2-dimethylpropyl [(1′R,2S,6S,12Z,13aS,14aR,16aS)-5′-cyclopropyl-1′-fluoro-9′-methoxy-14a-{[(1-methylcyclopropyl)sulfonyl]carbamoyl}-5,16-dioxo-1,1′,2′,5,6,7,8,9,10,11,13a,14,14a,15,16,16a-hexadecahydrospiro[cyclopropa[e]pyrrolo[1,2-a][1,4]diazacyclopentadecine-2,3′-pyrano[2,3-c]quinolin]-6-yl]carbamate]",EC50,[1]; [4],1550 pM
same,IC50,[2]; [5],0.04 nM
"CCc1nc2ccc(OC)cc2c2c1O[C@]1(C[C@H]2F)C[C@H]2C(=O)N[C@]3(C(=O)NS(=O)(=O)C4(C)CC4)C[C@H]3/C=C\CCCCC[C@H](NC(=O)OCC(C)(C)C)C(=O)N2C1 [Example 36, Neopentyl((1′R,2S,6S,13aS,14aR,16aS,Z)-5′-ethyl-1′-fluoro-9′-methoxy-14a-(((1-methylcyclopropyl)sulfonyl)carbamoyl)-5,16-dioxo-1′,2′,3,5,6,7,8,9,10,11,13a,14,14a, 15,16,16a-hexadecahydro-1H-spiro[cyclopropa[e]pyrrolo[1,2-a][1,4]diazacyclopentadecine-2,3′-pyrano[2,3-c]quinolin]-6-yl)carbamate]",EC50,[1]; genotype 1b replicon,1200 pM
same,IC50,[2]; [3],0.009 nM
"COc1ccc2c3c(c(C4CC4)nc2c1)O[C@]1(CC3)C[C@H]2C(=O)N[C@]3(C(=O)NS(=O)(=O)C4(C)CC4)C[C@H]3/C=C\CCCCC[C@H](NC(=O)O[C@@H]3C[C@H](C)CC[C@H]3C(C)C)C(=O)N2C1 [Example 276, (1R,2S,5R)-5-methyl-2-(propan-2-yl)cyclohexyl [(2R,6S,12Z,13aS,14aR,16aS)-5′-cyclopropyl-8′-methoxy-14a-{[(1-methylcyclopropyl)sulfonyl]carbamoyl}-5,16-dioxo-1,1′,2′,5,6,7,8,9,10,11,13a,14,14a,15,16,16a-hexadecahydrospiro[cyclopropa[e]pyrrolo[1,2-a][1,4]diazacyclopentadecine-2,3′-pyrano[2,3-c]quinolin]-6-yl]carbamate]",EC50,"[1]; genotype 1b replicon, HCOOH salt",104000 pM
same,IC50,"[2]; IC50 [gt-1b] (nM), NS3/4A genotype 1b, enzyme 0.2 nM, HCOOH salt",3.97 nM
"COc1ccc2nc(C)c3c(c2c1)CC[C@]1(C[C@H]2C(=O)N[C@]4(C(=O)NS(=O)(=O)C5(C)CC5)C[C@H]4/C=C\CCCCC[C@H](Nc4cccc(C)n4)C(=O)N2C1)O3 [Example 463, (2R,6S,12Z,13aS,14aR,16aS)-9′-methoxy-5′-methyl-N-[(1-methylcyclopropyl)sulfonyl]-6-[(6-methylpyridin-2-yl)amino]-5,16-dioxo-1,1′,2′,6,7,8,9,10,11,13a,14,15,16,16a-tetradecahydrospiro[cyclopropa[e]pyrrolo[1,2-a][1,4]diazacyclopentadecine-2,3′-pyrano[2,3-c]quinoline]-14a(5H)-carboxamide]",EC50,"[1]; HCV replicon, genotype 1b",2160 pM
same,IC50,[2]; [6],0.057 nM
"CC(C)(C)OC(=O)N[C@H]1CCCCC/C=C\[C@@H]2C[C@@]2(C(=O)NS(=O)(=O)C2(C)CC2)NC(=O)[C@@H]2C[C@]3(CCc4c(c(C(F)(F)F)nc5ccc(OCCO[Si](C)(C)C(C)(C)C)cc45)O3)CN2C1=O [Example 492, tert-butyl [(2R,6S,12Z,13aS,14aR,16aS)-9′-(2-{[tert-butyl(dimethyl)silyl]oxy}ethoxy)-14a-{[(1-methylcyclopropyl)sulfonyl]carbamoyl}-5,16-dioxo-5′-(trifluoromethyl)-1,1′,2′,5,6,7,8,9,10,11,13a,14,14a,15,16,16a-hexadecahydrospiro[cyclopropa[e]pyrrolo[1,2-a][1,4]diazacyclopentadecine-2,3′-pyrano[2,3-c]quinolin]-6-yl]carbamate]",EC50,"[1]; HCV replicon, genotype 1b",1390 pM
same,IC50,[2]; [6],0.044 nM
"COc1ccc2nc(C(F)F)c3c(c2c1)CC[C@]1(C[C@H]2C(=O)N[C@]4(C(=O)NS(=O)(=O)C5(C)CC5)C[C@H]4/C=C\CCCCC[C@H](NC(=O)O[C@@H](C)C(C)C)C(=O)N2C1)O3 [Example 442, (2S)-3-methylbutan-2-yl [(2R,6S,12Z,13aS,14aR,16aS)-5′-(difluoromethyl)-9′-methoxy-14a-{[(1-methylcyclopropyl)sulfonyl]carbamoyl}-5,16-dioxo-1,1′,2′,5,6,7,8,9,10,11,13a,14,14a,15,16,16a-hexadecahydrospiro[cyclopropa[e]pyrrolo[1,2-a][1,4]diazacyclopentadecine-2,3′-pyrano[2,3-c]quinolin]-6-yl]carbamate]",EC50,[1]; [4],1680 pM
same,IC50,[2]; [5],0.024 nM
"Cc1nc2ccc(OC(F)(F)F)cc2c2c1O[C@]1(CC2)C[C@H]2C(=O)N[C@]3(C(=O)NS(=O)(=O)C4(C)CC4)C[C@H]3/C=C\CCCCC[C@H](NC(=O)OCC3COC3)C(=O)N2C1 [Example 177, oxetan-3-ylmethyl [(2R,6S,12Z,13aS,14aR,16aS)-5′-methyl-14a-{[(1-methylcyclopropyl)sulfonyl]carbamoyl}-5,16-dioxo-9′-(trifluoromethoxy)-1,1′,2′,5,6,7,8,9,10,11,13a,14,14a,15,16,16a-hexadecahydrospiro[cyclopropa[e]pyrrolo[1,2-a][1,4]diazacyclopentadecine-2,3′-pyrano[2,3-c]quinolin]-6-yl]carbamate]",EC50,[1]; genotype 1b replicon,21900 pM
same,IC50,[2]; [3],0.011 nM
"Cc1nc2ccccc2c2c1O[C@@]1(C[C@H]3C(=O)N[C@]4(C(=O)NS(=O)(=O)C5(C)CC5)C[C@H]4/C=C\CCCCC[C@H](NC(=O)OC(C)(C)C)C(=O)N3C1)CC2(F)F [Example 25, tert-Butyl (2S,6S,13aS,14aR,16aS,Z)-1′,1′-difluoro-5′-methyl-14a-(1-methylcyclopropylsulfonylcarbamoyl)-5,16-dioxo-1′,2′,3,5,6,7,8,9,10,11,13a,14,14a,15,16,16a-hexadecahydro-1H-spiro[cyclopropa[e]pyrrolo[1,2-a][1,4]diazacyclopentadecine-2,3′-pyrano[2,3-c]quinoline]-6-ylcarbamate]",EC50,[1]; genotype 1b replicon,1110 pM
same,IC50,[2]; [3],0.016 nM
"COc1ccc2nc(C)c3c(c2c1)[C@H](F)C[C@]1(C[C@H]2C(=O)N[C@]4(C(=O)NS(=O)(=O)C5(C)CC5)C[C@H]4/C=C\CCCCC[C@H](NC(=O)OC(C)(C)C)C(=O)N2C1)O3 [Example 56, tert-Butyl ((1′R,2S,6S,13aS,14aR,16aS,Z)-1′-fluoro-9′-methoxy-5′-methyl-14a-(((1-methylcyclopropyl)sulfonyl)carbamoyl)-5,16-dioxo-1′,2′,3,5,6,7,8,9,10,11,13a,14,14a, 15,16,16a-hexadecahydro-1H-spiro[cyclopropa[e]pyrrolo[1,2-a][1,4]diazacyclopentadecine-2,3′-pyrano[2,3-c]quinolin]-6-yl)carbamate]",EC50,"[1]; genotype 1b replicon, K+ salt",1660 pM
same,IC50,"[2]; IC50 [gt-1b] (nM), NS3/4A genotype 1b, enzyme 0.2 nM, K+ salt",0.008 nM
"CC(C)(C)OC(=O)N[C@H]1CCCCC/C=C\[C@@H]2C[C@@]2(C(=O)NS(=O)(=O)C2(C)CC2)NC(=O)[C@@H]2C[C@]3(CCc4c(c(CN5CCOCC5)nc5ccccc45)O3)CN2C1=O [Example 38, tert-butyl ((2R,6S,13aS,14aR,16aS,Z)-14a-(((1-methylcyclopropyl)sulfonyl)carbamoyl)-5′-(morpholinomethyl)-5,16-dioxo-1′,2′,3,5,6,7,8,9,10,11,13a,14,14a,15,16,16a-hexadecahydro-1H-spiro[cyclopropa[e]pyrrolo[1,2-a][1,4]diazacyclopentadecine-2,3′-pyrano[2,3-c]quinolin]-6-yl)carbamate]",EC50,[1]; genotype 1b replicon,22100 pM
same,IC50,[2]; [3],0.058 nM
